Test results as given in patent US20230167073A1 (Teijin Pharma Limited, priority 2020, published 2023).
pIC50: −log10 of the molar value.

molecular target: T1, Human TRPC6 (Homo sapiens, UniProt Q9Y210); experiment: Evaluation of TRPC6 channel inhibitory activity (1), FLIPR Calcium 5 Assay Kit, OAG stimulation (Compound Nos. 1-1293); type: cell-based; conditions: not given
T1 construct: expressed in transfected cells
T1 sequence (Q9Y210 1-931): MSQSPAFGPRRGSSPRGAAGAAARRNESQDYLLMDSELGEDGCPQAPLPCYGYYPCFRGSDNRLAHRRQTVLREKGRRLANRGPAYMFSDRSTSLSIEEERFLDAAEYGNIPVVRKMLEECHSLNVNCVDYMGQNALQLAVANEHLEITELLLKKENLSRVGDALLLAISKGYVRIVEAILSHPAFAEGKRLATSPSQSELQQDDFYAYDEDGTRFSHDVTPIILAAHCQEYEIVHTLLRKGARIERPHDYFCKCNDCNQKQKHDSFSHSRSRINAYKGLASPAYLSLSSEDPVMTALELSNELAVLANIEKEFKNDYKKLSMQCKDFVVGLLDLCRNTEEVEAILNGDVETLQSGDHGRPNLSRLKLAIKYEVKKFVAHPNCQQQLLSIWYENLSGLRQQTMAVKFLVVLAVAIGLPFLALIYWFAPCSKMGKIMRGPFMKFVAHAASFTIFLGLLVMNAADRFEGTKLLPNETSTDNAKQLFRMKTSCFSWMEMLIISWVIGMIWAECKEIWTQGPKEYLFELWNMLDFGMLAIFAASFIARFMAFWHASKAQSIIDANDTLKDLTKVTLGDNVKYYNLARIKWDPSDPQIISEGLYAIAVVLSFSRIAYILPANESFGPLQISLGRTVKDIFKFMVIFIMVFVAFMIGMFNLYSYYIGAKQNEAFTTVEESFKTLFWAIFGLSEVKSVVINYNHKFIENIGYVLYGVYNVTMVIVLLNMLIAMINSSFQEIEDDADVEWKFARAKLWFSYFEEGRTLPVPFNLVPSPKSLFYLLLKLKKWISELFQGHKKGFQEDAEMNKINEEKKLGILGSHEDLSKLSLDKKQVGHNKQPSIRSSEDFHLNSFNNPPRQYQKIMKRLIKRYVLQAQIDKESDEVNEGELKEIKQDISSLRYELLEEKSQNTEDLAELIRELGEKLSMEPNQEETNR
How it was run: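 Stable human TRPC6 line; fluorescent Ca2+ dye loading, then 20 min compound exposure before 30 μM OAG trigger. Peak-minus-baseline signal converted to % inhibition against untreated and unstimulated wells; potency given as pIC50 band.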

`Cc1nc(Oc2cc(C#N)ccc2-c2ncc(CCN)cn2)cc(N2C3CCC2CC3)n1` [compound 671, 4-[5-(2-aminoethyl)pyrimidin-2-yl]-3-[6-(7-azabicyclo[2.2.1]heptan-7-yl)-2-methylpyrimidin-4-yl]oxybenzonitrile] and `Cc1nc(Oc2cc(C#N)ccc2-c2ncc(CN)cn2)cc(N2C3CCC2CC3)n1` [compound 672, 4-[5-(aminomethyl)pyrimidin-2-yl]-3-[6-(7-azabicyclo[2.2.1]heptan-7-yl)-2-methylpyrimidin-4-yl]oxybenzonitrile] cannot be ordered by pIC50: greater than 8.00 for the first, greater than 8.00 for the second.

same assay, conditions: Human TRPC6 stably-expressing cells, OAG 30 μM, FLIPR Calcium 5 Assay Kit; read-out: Inhibitory activity (pIC50 class) (converted)

First: Cc1cc(Oc2cc(C#N)ccc2-c2ncc(CN)cn2)cc(NC(C)C)n1 [compound 644, 4-[5-(aminomethyl)pyrimidin-2-yl]-3-[2-methyl-6-(propan-2-ylamino)pyridin-4-yl]oxybenzonitrile]
Second: Cc1cc(Oc2cc(C#N)ccc2-c2ncc(CN)cn2)cc(NC2CC2)n1 [compound 646, 4-[5-(aminomethyl)pyrimidin-2-yl]-3-[2-(cyclopropylamino)-6-methylpyridin-4-yl]oxybenzonitrile]
The IC50 of the first is lower: less than 0.01 µM for the first, 0.01 to 1 µM for the second.

Compared with `Cc1cc(Oc2cc(C#N)ccc2-c2ccc(CN)cn2)cc(NC2CC2)n1` [compound 645, 4-[5-(aminomethyl)pyridin-2-yl]-3-[2-(cyclopropylamino)-6-methylpyridin-4-yl]oxybenzonitrile], `Cc1cc(Oc2cc(C#N)ccc2-c2ccc(CN)cn2)cc(NC2CCOCC2)n1` [compound 647, 4-[5-(aminomethyl)pyridin-2-yl]-3-[2-methyl-6-(oxan-4-ylamino)pyridin-4-yl]oxybenzonitrile] is higher in IC50: 0.01 to 1 µM for the first, greater than 1 µM for the second.

`Cc1cc(Oc2cc(C#N)ccc2-c2ncc(CN)cn2)cc(NC2CCOCC2)n1` [compound 648, 4-[5-(aminomethyl)pyrimidin-2-yl]-3-[2-methyl-6-(oxan-4-ylamino)pyridin-4-yl]oxybenzonitrile] and `Cc1cc(Oc2cc(C#N)ccc2-c2ncc(CNC(C)(C)C)cn2)cc(N2CCOCC2)n1` [compound 661, 4-[5-[(tert-butylamino)methyl]pyrimidin-2-yl]-3-(2-methyl-6-morpholin-4-ylpyridin-4-yl)oxybenzonitrile] cannot be ordered by IC50: greater than 1 µM for the first, greater than 1 µM for the second.

Compared with `Cn1nc(-c2ncccc2F)cc1Oc1cc(C#N)ccc1-c1ncc(CN)cn1` [compound 649, 4-[5-(aminomethyl)pyrimidin-2-yl]-3-[5-(3-fluoropyridin-2-yl)-2-methylpyrazol-3-yl]oxybenzonitrile], `Cn1nc(-c2ccc(F)cn2)cc1Oc1cc(C#N)ccc1-c1ncc(CN)cn1` [compound 651, 4-[5-(aminomethyl)pyrimidin-2-yl]-3-[5-(5-fluoropyridin-2-yl)-2-methylpyrazol-3-yl]oxybenzonitrile] is lower in IC50: 0.01 to 1 µM for the first, less than 0.01 µM for the second.

First: Cc1cccc(-c2cc(Oc3cc(C#N)ccc3-c3ncc(CN)cn3)n(C)n2)n1 [compound 650, 4-[5-(aminomethyl)pyrimidin-2-yl]-3-[2-methyl-5-(6-methylpyridin-2-yl)pyrazol-3-yl]oxybenzonitrile]
Second: Cc1ccnc(-c2cc(Oc3cc(C#N)ccc3-c3ncc(CN)cn3)n(C)n2)c1 [compound 652, 4-[5-(aminomethyl)pyrimidin-2-yl]-3-[2-methyl-5-(4-methylpyridin-2-yl)pyrazol-3-yl]oxybenzonitrile]
The IC50 of the first is higher: 0.01 to 1 µM for the first, less than 0.01 µM for the second.

`Cc1nc(Oc2cc(C#N)ccc2-c2ncc(CN)cn2)cc(N2CC(F)(F)C2)n1` [compound 653, 4-[5-(aminomethyl)pyrimidin-2-yl]-3-[6-(3,3-difluoroazetidin-1-yl)-2-methylpyrimidin-4-yl]oxybenzonitrile] and `Cc1nc(Oc2cc(C#N)ccc2-c2ncc(CN)cn2)cc(N2CCCC2)n1` [compound 658, 4-[5-(aminomethyl)pyrimidin-2-yl]-3-(2-methyl-6-pyrrolidin-1-ylpyrimidin-4-yl)oxybenzonitrile] fall in the same range of IC50: 0.01 to 1 µM for the first, 0.01 to 1 µM for the second.

Compared with `Cc1nc(Oc2cc(C#N)ccc2-c2ccc(CCN)cn2)cc(N2CCN(S(C)(=O)=O)CC2)n1` [compound 654, 4-[5-(2-aminoethyl)pyridin-2-yl]-3-[2-methyl-6-(4-methylsulfonylpiperazin-1-yl)pyrimidin-4-yl]oxybenzonitrile], `Cc1nc(Oc2cc(C#N)ccc2-c2ccc(CN)cn2)cc(N2CCCC2)n1` [compound 657, 4-[5-(aminomethyl)pyridin-2-yl]-3-(2-methyl-6-pyrrolidin-1-ylpyrimidin-4-yl)oxybenzonitrile] is lower in IC50: greater than 1 µM for the first, less than 0.01 µM for the second.

`CCN(CC)c1cc(Oc2cc(C#N)ccc2-c2ncc(CN)cn2)n(C)n1` [compound 655, 4-[5-(aminomethyl)pyrimidin-2-yl]-3-[5-(diethylamino)-2-methylpyrazol-3-yl]oxybenzonitrile] and `CCN(CC)c1cc(Oc2cc(C#N)ccc2-c2ncc(CCN)cn2)n(C)n1` [compound 656, 4-[5-(2-aminoethyl)pyrimidin-2-yl]-3-[5-(diethylamino)-2-methylpyrazol-3-yl]oxybenzonitrile] cannot be ordered by IC50: less than 0.01 µM for the first, less than 0.01 µM for the second.

First: Cc1nc(Oc2cc(C#N)ccc2-c2ccc(CN)cn2)cc(N(C)C)n1 [compound 659, 4-[5-(aminomethyl)pyridin-2-yl]-3-[6-(dimethylamino)-2-methylpyrimidin-4-yl]oxybenzonitrile]
Second: Cc1nc(Oc2cc(C#N)ccc2-c2ncc(CN)cn2)cc(N(C)C)n1 [compound 660, 4-[5-(aminomethyl)pyrimidin-2-yl]-3-[6-(dimethylamino)-2-methylpyrimidin-4-yl]oxybenzonitrile]
The IC50 of the first is lower: 0.01 to 1 µM for the first, greater than 1 µM for the second.

`Cn1nc(-c2ccccn2)cc1Oc1cc(C#N)ccc1-c1ncc(CNC2CC2)cn1` [compound 662, 4-[5-[(cyclopropylamino)methyl]pyrimidin-2-yl]-3-(2-methyl-5-pyridin-2-ylpyrazol-3-yl)oxybenzonitrile] and `CC(C)NCc1cnc(-c2ccc(C#N)cc2Oc2cc(-c3ccccn3)nn2C)nc1` [compound 663, 3-(2-methyl-5-pyridin-2-ylpyrazol-3-yl)oxy-4-[5-[(propan-2-ylamino)methyl]pyrimidin-2-yl]benzonitrile] fall in the same range of IC50: 0.01 to 1 µM for the first, 0.01 to 1 µM for the second.

Compared with `Cn1nc(-c2ccccn2)cc1Oc1cc(C#N)ccc1-c1ncc(CNC(C)(C)C)cn1` [compound 664, 4-[5-[(tert-butylamino)methyl]pyrimidin-2-yl]-3-(2-methyl-5-pyridin-2-ylpyrazol-3-yl)oxybenzonitrile], `Cn1nc(-c2ccccn2)cc1Oc1cc(C#N)ccc1-c1ncc(CNC2(C)COC2)cn1` [compound 665, 4-[5-[[(3-methyloxetan-3-yl)amino]methyl]pyrimidin-2-yl]-3-(2-methyl-5-pyridin-2-ylpyrazol-3-yl)oxybenzonitrile] is higher in IC50: 0.01 to 1 µM for the first, greater than 1 µM for the second.

First: Cn1nc(-c2ccccn2)cc1Oc1cc(C#N)ccc1-c1ncc(CNC23CC4CC(CC(C4)C2)C3)cn1 [compound 666, 4-[5-[(1-adamantylamino)methyl]pyrimidin-2-yl]-3-(2-methyl-5-pyridin-2-ylpyrazol-3-yl)oxybenzonitrile]
Second: Cc1nc(Oc2cc(C#N)ccc2-c2ncc(CN)cn2)cc(N2CCC(F)CC2)n1 [compound 669, 4-[5-(aminomethyl)pyrimidin-2-yl]-3-[6-(4-fluoropiperidin-1-yl)-2-methylpyrimidin-4-yl]oxybenzonitrile]
The IC50 of the first is higher: greater than 1 µM for the first, 0.01 to 1 µM for the second.

First: Cc1nc(Oc2cc(C#N)ccc2-c2ccc(CC3(N)COC3)cn2)cc(N2CCC(F)CC2)n1 [compound 667, 4-[5-[(3-aminooxetan-3-yl)methyl]pyridin-2-yl]-3-[6-(4-fluoropiperidin-1-yl)-2-methylpyrimidin-4-yl]oxybenzonitrile]
Second: Cc1nc(Oc2cc(C#N)ccc2-c2ccc(CC3(N)COC3)cn2)cc(N2CCC[C@H]2C#N)n1 [compound 673, (2S)-1-[6-[2-[5-[(3-aminooxetan-3-yl)methyl]pyridin-2-yl]-5-cyanophenoxy]-2-methylpyrimidin-4-yl]pyrrolidine-2-carbonitrile]
The IC50 of the first is lower: 0.01 to 1 µM for the first, greater than 1 µM for the second.

First: Cc1nc(Oc2cc(C#N)ccc2-c2ncc(CCN)cn2)cc(N2CCC(F)CC2)n1 [compound 668, 4-[5-(2-aminoethyl)pyrimidin-2-yl]-3-[6-(4-fluoropiperidin-1-yl)-2-methylpyrimidin-4-yl]oxybenzonitrile]
Second: Cc1nc(Oc2cc(C#N)ccc2-c2ncc(CCN)cn2)cc(N2CCC[C@H]2C#N)n1 [compound 674, (2S)-1-[6-[2-[5-(2-aminoethyl)pyrimidin-2-yl]-5-cyanophenoxy]-2-methylpyrimidin-4-yl]pyrrolidine-2-carbonitrile]
The IC50 of the first is lower: less than 0.01 µM for the first, 0.01 to 1 µM for the second.
